Test results as given in ChEMBL document CHEMBL1130895, “Syntheses of 2-[(3,5-dimethyl-4-methoxypyridyl)alkyl]-benzothiazolidine derivatives as a potential gastric H+/K(+)-ATPase inhibitor” (Bioorg Med Chem Lett, 1998).

Assays:
[1] = target: Potassium-transporting ATPase (Homo sapiens) (UniProt P20648+P51164); test: Inhibition of H+/K+ ATPase activity in buffered solution (pH 7.4) at concentration […]; assay type: protein-complex assay
[2] = target: Potassium-transporting ATPase (Homo sapiens, UniProt P20648); test: Inhibition of H+/K+ ATPase activity in buffered solution (pH 7.4); assay type: protein-complex assay

| Structure (SMILES) | inhibition [1] | IC50 [2] |
| --- | --- | --- |
| CCOC(=O)[C@@H]1CSC(CCc2ncc(C)c(OC)c2C)N1 (stereo not given in full) | 19.8% |  |
| COc1c(C)cnc(C2Nc3ccccc3S2)c1C (stereo not given) | 0% |  |
| COc1c(C)cnc(CC2Nc3ccccc3S2)c1C (stereo not given) | 58.5% |  |
| COc1c(C)cnc(CCC2(C)Nc3cc(C(F)(F)F)ccc3S2)c1C (stereo not given) | 84.4% | 24 µM |
| COc1c(C)cnc(CCC2(C)Nc3cc(C)ccc3S2)c1C (stereo not given) | 0% |  |
| COc1c(C)cnc(CCCC2(C)Nc3ccccc3S2)c1C (stereo not given) | 0% |  |
| COc1c(C)cnc(CCC2(C)Sc3ccccc3N2C)c1C (stereo not given) | 17% |  |
| COc1c(C)cnc(CCC2(C)Nc3ccc(Cl)cc3S2)c1C (stereo not given) | 0% |  |
| COc1c(C)cnc(CCC2Nc3ccccc3S2)c1C (stereo not given) | 24.6% |  |
| CC1(CCc2ccccn2)Nc2ccccc2S1 (stereo not given) | 0% |  |
| COc1ccc2[nH]c([S+]([O-])Cc3ncc(C)c(OC)c3C)nc2c1 (stereo not given) | 95% |  |
| COc1c(C)cnc(/C=C/C2(C)Nc3ccccc3S2)c1C (stereo not given) | 61.1% | > 100 µM |
| COc1c(C)cnc(CCC2(C)Nc3cc(Cl)ccc3S2)c1C (stereo not given) | 20% | > 100 µM |
| COc1c(C)cnc(CCC2(C)Nc3ccccc3S2)c1C (stereo not given) | 96.4% | 98 µM |
| COc1c(C)cnc(CCC2(C)Nc3cc(F)ccc3S2)c1C (stereo not given) | 81% | 33 µM |
